As usually defined, the melting point is the temperature, or range, at which the solid turns liquid.

As to `CNC(=O)n1nc(Oc2ccc([N+](=O)[O-])cc2C(F)(F)F)c(Cl)c1C` [Example 245, N-methyl-4-chloro-5-methyl-3-(4-nitro-2-trifluoromethylphenyloxy)pyrazole-1-carboxamide], the melting point was in the range of 157 to 158 °C. To `Cc1cc(Oc2ccc(F)cc2[N+](=O)[O-])n[nH]1` [Compound 1-29, 3-(4-fluoro-2-nitrophenyloxy)-5-methylpyrazole] belongs 81 to 84 °C. For `Cc1cc(Oc2ccc([N+](=O)[O-])c(F)c2)n[nH]1` [Compound 1-26, 3-(3-fluoro-4-nitrophenyloxy)-5-methylpyrazole] the value was 80 to 83 °C.

In turn, `Cc1cc(Oc2ccccc2C(F)(F)F)nn1C(=O)Nc1ccccc1` registered a melting point of 87 to 89 °C. To `CCNC(=O)n1nc(Oc2ccc(C#N)cc2C(F)(F)F)cc1C` [Example 95, N-ethyl-3-(4-cyano-2-trifluoromethylphenyloxy)-5-methylpyrazole-1-carboxamide] belongs 103 to 105 °C; to `CNC(=O)n1nc(Oc2c(F)cc(C(F)(F)F)cc2Cl)cc1C`, 87 to 88 °C.

`Cc1cc(Oc2ccc([N+](=O)[O-])c(C(F)(F)F)c2)n[nH]1` [Compound 1-42, 5-methyl-3-(4-nitro-3-trifluoromethylphenyloxy)pyrazole] returned a melting point of 96 to 98 °C. For `Cc1cc(Oc2cccc(C(F)(F)F)c2)nn1C(=O)NCC1CCCO1` (stereo not shown) [Example 199, N-tetrahydrofurfuryl-5-methyl-3-(3-trifluoromethylphenyloxy)pyrazole-1-carboxamide] the value was 101 to 102 °C. To `Cc1cc(Oc2ncc(C(F)(F)F)cc2Cl)n[nH]1` [Compound 2-5, 3-(3-chloro-5-trifluoromethylpyridin-2-yloxy)-5-methylpyrazole] belongs 93 to 95 °C; to `Cc1c(Oc2ncc(C(F)(F)F)cc2Cl)nn(C(=O)NC(C)C)c1C` [Compound 4-82, N-isopropyl-3-(3-chloro-5-trifluoromethylpyridin-2-yloxy)-4,5-dimethylpyrazole-1-carboxamide], 78 to 80 °C. The molecule `CCc1c(Oc2ccc([N+](=O)[O-])cc2C(F)(F)F)nn(C(=O)NC)c1C` returned a melting point of 96 to 97 °C.

`CCNC(=O)n1nc(Oc2c(Cl)cc(C(F)(F)F)cc2Cl)cc1C(=O)OC` [Example 175, methyl 3-(2,6-dichloro-4-trifluoromethylphenyloxy)-1 (N-ethylcarbamoyl)pyrazole-5-carboxylate] displayed a melting point of 88 to 90 °C. For `CCNC(=O)n1nc(Oc2ncc(C(F)(F)F)cc2Cl)cc1CC` [Compound 4-88, N-ethyl-3-(3-chloro-5-trifluoromethylpyridin-2-yloxy)-5-ethylpyrazole-1-carboxamide] the value was 85 to 86 °C. To `Cc1cc(Oc2ncc(C(F)(F)F)cc2Cl)nn1C(=O)N(C)C` [Compound 4-10, N,N-Dimethyl-3-(3-chloro-5-trifluoromethylpyridin-2-yloxy)-5-methylpyrazole-1-carboxamide] belongs 102 to 104 °C; to `CNC(=O)n1nc(Oc2ccc(C(F)(F)F)cc2[N+](=O)[O-])cc1C(F)(F)F`, 102 to 104 °C; to `Cc1cc(Oc2ccc(N)cc2C(F)(F)F)n[nH]1` [Compound 1-37, 3-(4-amino-2-trifluoromethylphenyloxy)-5-methylpyrazole], 143 to 145 °C. To `Cc1cc(Oc2ccc(C(F)(F)F)cc2[N+](=O)[O-])n[nH]1` [Compound 1-44, 5-methyl-3-(2-nitro-4-trifluoromethylphenyloxy)pyrazole] belongs 89 to 91 °C; to `CCNC(=O)n1nc(Oc2ccc([N+](=O)[O-])c(OCC)c2)cc1C` [Example 98, N-ethyl-3-(3-ethoxy-4-nitrophenyloxy)-5-methylpyrazole-1-carboxamide], 110 to 112 °C; to `Cc1c(Cl)c(Oc2ccc(C(F)(F)F)cc2[N+](=O)[O-])nn1C(=O)NC(C)C` [Example 243, N-isopropyl-4-chloro-5-methyl-3-(2-nitro-4-trifluoromethylphenyloxy)pyrazole-1-carboxamide], 89 to 91 °C. Turning to `CNC(=O)n1nc(Oc2ccc(C(F)(F)F)cc2[N+](=O)[O-])c(C)c1C`, the melting point is 117 to 119 °C.

Consider `Cc1cc(Oc2ncc(C(F)(F)F)cc2Cl)nn1C(=O)N(C(C)C)C(C)C` [Compound 4-27, N,N-diisopropyl-3-(3-chloro-5-trifluoromethylpyridin-2-yloxy)-5-methylpyrazole-1-carboxamide], for which the melting point fell in the range of 58 to 60 °C.

Take `CCc1c(Oc2ncc(C(F)(F)F)cc2Cl)nn(C(=O)NC)c1C`: the melting point lay within 84 to 86 °C. For `Cc1cc(Oc2c(Cl)cc(C(F)(F)F)cc2[N+](=O)[O-])n[nH]1` [Compound 1-21, 3-(2-chloro-6-nitro-4-trifluoromethylphenyloxy)-5-methylpyrazole] the value was 120 to 123 °C. To `CCNC(=O)n1nc(Oc2ccc([N+](=O)[O-])cc2)cc1C` [Example 54, N-ethyl-5-methyl-3-(4-nitrophenyloxy)pyrazole-1-carboxamide] belongs 105 to 107 °C. Take `CCOc1cc(Oc2cc(C)[nH]n2)ccc1[N+](=O)[O-]` [Compound 1-6, 3-(3-ethoxy-4-nitrophenyloxy)-5-methylpyrazole]: the melting point was in the range of 123 to 124 °C. For `CCCCCCNC(=O)n1nc(Oc2c(Cl)cc(C(F)(F)F)cc2Cl)c(Cl)c1C` [Example 246, N-hexyl-4-chloro-3-(2,6-dichloro-4-trifluoromethylphenyloxy)-5-methylpyrazole-1-carboxamide] the value was 86 to 88 °C. For `CCNC(=O)n1nc(Oc2ccc(F)cc2[N+](=O)[O-])cc1C` [Example 85, N-ethyl-3-(4-fluoro-2-nitrophenyloxy)-5-methylpyrazole-1-carboxamide] the value was 81 to 84 °C; for `CCNC(=O)n1nc(Oc2c([N+](=O)[O-])cc([N+](=O)[O-])cc2C(F)(F)F)cc1C`, 169 to 171 °C. To `Cc1cc(Oc2c(Cl)cc(C(F)(F)F)cc2Cl)n[nH]1` [Compound 1-17, 3-(2,6-dichloro-4-trifluoromethylphenyloxy)-5-methylpyrazole] belongs 153 to 155 °C; to `CCNC(=O)n1nc(Oc2c(Cl)cc(C(F)(F)F)cc2Cl)cc1-c1ccc(Cl)cc1` [Example 176, N-ethyl-5-(4-chlorophenyl)-3-(2,6-dichloro-4-trifluoromethylphenyloxy)pyrazole-1-carboxamide], 88 to 89 °C; to `CCc1cc(Oc2ncc(C(F)(F)F)cc2Cl)nn1C(=O)NC`, 85 to 87 °C. `C=CNC(=S)n1nc(Oc2ncc(C(F)(F)F)cc2Cl)cc1C` [Compound 4-41, N-vinyl-3-(3-chloro-5-trifluoromethylpyridin-2-yloxy)-5-methylpyrazole-1-carbothioamide] had a melting point of 90 to 92 °C. The molecule `Cc1cc(Oc2c(Cl)cc(C(F)(F)F)cc2Cl)nn1C(N)=O` [Example 223, 3-(2,6-dichloro-4-trifluoromethylphenyloxy)-5-methylpyrazole-1-carboxamide] registered a melting point of 152 to 154 °C. `CCNC(=O)n1nc(Oc2c(Cl)cc(C(F)(F)F)cc2[N+](=O)[O-])cc1C` [Example 126, N-ethyl-3-(2-chloro-6-nitro-4-trifluoromethylphenyloxy)-5-methylpyrazole-1-carboxamide] gave a melting point of 98 to 99 °C. For `CCNC(=O)n1nc(Oc2c(Cl)cc(C(F)(F)F)cc2Cl)cc1CC` [Example 163, N-ethyl-3-(2,6-dichloro-4-trifluoromethylphenyloxy)-5-ethylpyrazole-1-carboxamide] the value was 86 to 89 °C; for `CNC(=O)n1nc(Oc2ccc([N+](=O)[O-])cc2C(F)(F)F)c(C)c1C`, 113 to 115 °C; for `CCc1c(Cl)c(Oc2ncc(C(F)(F)F)cc2Cl)nn1C(=O)NC` [Compound 4-89, N-methyl-4-chloro-3-(3-chloro-5-trifluoromethylpyridin-2-yloxy)-5-ethylpyrazole-1-carboxamide], 88 to 89 °C. For `CCc1cc(Oc2ccc(C(F)(F)F)cc2[N+](=O)[O-])nn1C(=O)NC` the value was 89 to 91 °C; for `Cc1[nH]nc(Oc2c(Cl)cc(C(F)(F)F)cc2Cl)c1Cl` [Compound 1-18, 4-chloro-3-(2,6-dichloro-4-trifluoromethylphenyloxy)-5-methylpyrazole], 156 to 158 °C; for `Cc1cc(Oc2ccc([N+](=O)[O-])cc2)n[nH]1` [Compound 1-47, 5-methyl-3-(4-nitrophenyloxy)pyrazole], 124 to 125 °C. To `Cc1cc(Oc2ccc(C#N)cc2C(F)(F)F)n[nH]1` [Compound 1-30, 3-(4-cyano-2-trifluoromethylphenyloxy)-5-methylpyrazole] belongs 123 to 125 °C; to `CCNC(=S)n1nc(Oc2c(F)cc(C(F)(F)F)cc2Cl)cc1C`, 114 to 115 °C. Consider `CCNC(=O)n1nc(Oc2ncc(C(F)(F)F)cc2Cl)c(Cl)c1C` [Compound 4-67, N-ethyl-4-chloro-3-(3-chloro-5-trifluoromethylpyridin-2-yloxy)-5-methylpyrazole-1-carboxamide], for which the melting point is 111 to 112 °C. To `CCNC(=O)n1nc(Oc2ccc([N+](=O)[O-])c(C)c2)cc1C` [Example 96, N-ethyl-5-methyl-3-(3-methyl-4-nitrophenyloxy)pyrazole-1-carboxamide] belongs 67 to 69 °C; to `Cc1cc(Oc2c(Cl)cc(C(F)(F)F)cc2Cl)nn1C(=O)NCC=O` [Example 229, N-formylmethyl-3-(2,6-dichloro-4-trifluoromethylphenyloxy)-5-methylpyrazole-1-carboxamide], 111 to 113 °C.

The molecule `CCNC(=O)n1nc(Oc2ncc(C(F)(F)F)cc2Cl)c(Br)c1C` [Compound 4-78, N-ethyl-4-bromo-3-(3-chloro-5-trifluoromethylpyridin-2-yloxy)-5-methylpyrazole-1-carboxamide] yielded a melting point of 123 to 125 °C.

The values above are taken from patent US7700786B2, “Pyrazole derivative, intermediate therefor, processes for producing these, and herbicide containing these as active ingredient” (Sagami Chemical Research Center, priority 2001, dated 2010).
